# Where “and” joins values, the source holds several entries; their conditions need not be identical. Equal values may be shown once. Read-outs that look alike come from different tables or passages of the source. Marks after values point to notes of the source that are not given here.
# Legend:
# [1] = monkeys; cited from earlier work
# [2] = test system: chemically induced seizure threshold; conditions: dogs, cited from earlier work
# [3] = side effects: owner questionnaire and follow up examinations with blood work
# [4] = test system: dogs with chronic idiopathic epilepsy; experiment: add-on therapy in dogs with chronic idiopathic epilepsy not responding to phenobarbital or primidone; type: in vivo, dog
# [5] = plasma concentration of AWD 131-138 (HPLC/mass spectrometry); type: in vivo, dog; conditions: for concentration at 12 h: 12 hours after application
# Experimental: A pharmacokinetic study was performed at the beginning of treatment in 2 dogs with AWD 131-138 monotherapy and in 4 dogs with a combination therapy of AWD 131-138 and phenobarbital or primidone. All 6 dogs received 5 mg/kg bodyweight AWD 131-138. Blood was taken 3 times every 2 hours. […] The same method was used as a compliance control during the follow up examinations. Blood was taken two and twelve hours after oral administration of AWD 131-138.
# In six dogs entering the pilot study with AWD 131-138 a pharmacokinetic study was performed. AWD 131-138 was measured in plasma samples two, four and six hours after application. The initial dosage of AWD 131-138 was 5 mg/kg bodyweight p.o. in all cases.
# benzodiazepine receptor = conditions: co administration of flumazenil; cited from earlier work
# [6] = test system: cloned human GABA receptor complexes; conditions: cited from earlier work
# [7] = test system: benzodiazepine binding site of the GABAA receptor; conditions: broad receptor screen; cited from earlier work
# calcium channel = conditions: cited from earlier work
# [8] = self administration paradigm; cited from earlier work
# [9] = test system: dogs with newly diagnosed idiopathic epilepsy; experiment: monotherapy in dogs with newly diagnosed idiopathic epilepsy (AWD 131-138 pilot study; retrospective phenobarbital, primidone)
# [10] = 12 newly diagnosed dogs, monotherapy
# [11] = add-on, abnormalities already at the beginning of the study
# [12] = grand mal seizures, add-on to phenobarbital or primidone
# [13] = grand mal seizures, on phenobarbital or primidone before add-on
# [14] = median, on phenobarbital/primidone before add-on
# [15] = grand mal seizures, baseline before monotherapy
# [16] = grand mal seizures, monotherapy
# [17] = median group value, baseline before monotherapy
# [18] = median group value, monotherapy, asterisk = P<0.05 vs before
smiles,measurement,setting,value
"O=C1N=C(N2CCOCC2)CN1c1ccc(Cl)cc1 [AWD 131-138, 1-(4-chlorophenyl)-4-(4-morpholinyl)-2,5-dihydro-1H-imidazol-2-one]",identified as benzodiazepine like,[1],did not identify AWD 131-138 as benzodiazepine like
same,increase of seizure threshold (PTZ convulsive threshold),[2]; 20 mg/kg p.o.,39%
same,increase of seizure threshold (PTZ convulsive threshold),[2]; 40 mg/kg p.o.,118%
same,sedation,[3]; [10],no sedation occurred
same,tolerability,[3]; [10],exceptionally well tolerated
same,hematology and blood chemistry,"[3]; 12 newly diagnosed dogs, monotherapy, follow up",No abnormalities were found
same,"polyphagia, cases","[3]; 12 newly diagnosed dogs, monotherapy, in 4 dogs only at the beginning",7 (58%)
same,tolerability,"[3]; 17 dogs with chronic epilepsy, add-on",very well tolerated
same,"hematology (red, white and differential cell count)","[3]; 17 dogs with chronic epilepsy, add-on, follow up",No abnormalities were found
same,"polyphagia, cases","[3]; 17 dogs with chronic epilepsy, add-on, in 7 dogs only at the beginning",10 (59%)
same,"elevation of liver enzymes (ALT, GLDH and AP)",[3]; AWD 131-138 monotherapy,not observed
same,dogs with ataxia in the hind limbs and apathy 2 4 hours after application,"[3]; add-on, 40 mg/kg per day, combined phenobarbital with serum concentrations 56.6 58.9 μg/mL",Two
same,dogs with elevation of ALT,[3]; [11],1
same,dogs with elevation of AP,[3]; [11],6
same,dogs with elevation of GLDH,[3]; [11],3
same,comparison of antiepileptic efficacy between the two add on treatment schedules,[4]; Fisher's exact test,did not indicate any significant difference
same,"decrease of number of seizures per cluster, mean",[4]; add-on,39.5%
same,dogs in which clusters did not occur anymore,[4]; add-on,three
same,dogs in which focal seizures replaced grand mal seizures partially,[4]; add-on,nine
same,dogs with a seizure reduction under 50%,[4]; add-on,4
same,dogs with decreased number of seizures per cluster,[4]; add-on,4
same,dogs with worsening of seizure severity reported by owner,[4]; add-on,One
same,number of dogs with decreased duration of the ictus,[4]; add-on,3
same,number of dogs with shortened postictal phase,[4]; add-on,ten
same,owners reporting subjectively a decrease of seizure severity,[4]; add-on,eight of seventeen
same,"postictal phase during treatment, mean",[4]; add-on,5.5 h
same,dogs that died or were euthanized in status epilepticus,[4]; add-on to phenobarbital or primidone,Nine
same,"shortening of the postictal phase, mean","[4]; add-on, in the dogs with shortening",54%
same,"duration of the ictus during treatment, median",[4]; [12],2.0 min
same,"duration of the ictus during treatment, time range",[4]; [12],0.5 to 5 min
same,"duration of the ictus before treatment, median",[4]; [13],2.0 min
same,"duration of the ictus before treatment, time range",[4]; [13],0.5 to 10 min
same,% reduction of seizures in responders,"[4]; mean ± SEM, add-on to phenobarbital/primidone",47.2 ± 8.8%
same,"Seizure frequency during treatment, all dogs","[4]; median, add-on to phenobarbital/primidone",2.0 seizures/month
same,"Seizure frequency during treatment, without nonresponders","[4]; median, add-on to phenobarbital/primidone, asterisk = P<0.05",1.1* seizures/month
same,"Seizure frequency before treatment, all dogs",[4]; [14],1.9 seizures/month
same,"Seizure frequency before treatment, without nonresponders",[4]; [14],2.4 seizures/month
same,AWD 131-138 plasma concentration,"[5]; 2 hours after 5 mg/kg p.o., AWD 131-138 monotherapy, individual dogs",720.0 ng/mL and 2579.2 ng/mL
same,AWD 131-138 plasma concentration,"[5]; 2 hours after 5 mg/kg p.o., phenobarbital combination therapy, individual dogs",23.27 ng/mL and 1019.5 ng/mL
same,AWD 131-138 plasma concentration,"[5]; 2 hours after 5 mg/kg p.o., primidone combination therapy, individual dogs",2392.3 ng/mL
same,AWD 131-138 plasma concentration,"[5]; 4 hours after 5 mg/kg p.o., AWD 131-138 monotherapy, individual dogs",702.7 ng/mL and 1461.0 ng/mL
same,AWD 131-138 plasma concentration,"[5]; 4 hours after 5 mg/kg p.o., phenobarbital combination therapy, individual dogs",Bld
same,AWD 131-138 plasma concentration,"[5]; 4 hours after 5 mg/kg p.o., primidone combination therapy, individual dogs",1021.5 ng/mL and 2438.7 ng/mL
same,AWD 131-138 plasma concentration,"[5]; 6 hours after 5 mg/kg p.o., AWD 131-138 monotherapy, individual dogs",229.5 ng/mL and 709.0 ng/mL
same,AWD 131-138 plasma concentration,"[5]; 6 hours after 5 mg/kg p.o., phenobarbital combination therapy, individual dogs",bld (bld (below limit of detection): <2 ng/mL)
same,AWD 131-138 plasma concentration,"[5]; 6 hours after 5 mg/kg p.o., primidone combination therapy, individual dogs",448.1 ng/mL and 1289.0 ng/mL
same,concentration at 2 h,"[5]; dog, plasma, oral, 5 mg/kg bodyweight, 2 hours after 5 mg/kg p.o., primidone combination therapy, individual dogs, read-out: AWD 131-138 plasma concentration",1520 ng/mL
same,concentration at 4 h,"[5]; dog, plasma, oral, 5 mg/kg bodyweight, 4 hours after 5 mg/kg p.o., phenobarbital combination therapy, individual dogs",174 ng/mL
same,concentration at 6 h,"[5]; dog, plasma, oral, 5 mg/kg bodyweight, 6 hours after 5 mg/kg p.o., phenobarbital combination therapy, individual dogs",19.5 ng/mL
same,concentration at 2 h,"[5]; dog, plasma, oral, 30 mg/kg, 2 hours after application, 30 mg/kg, non responder dog that died in status epilepticus, read-out: AWD 131-138 plasma concentration",4000 ng/mL
same,concentration at 2 h,"[5]; dog, plasma, oral, 40 mg/kg/day, 2 hours after application, 40 mg/kg per day, two dogs with ataxia on combined phenobarbital treatment, read-out: AWD 131-138 plasma concentration, range",5560 to 10900 ng/mL
same,concentration at 2 h,"[5]; dog, plasma, oral, chronic epilepsy add on, 2 hours after application, 10-15 mg/kg twice a day, seventeen dogs, read-out: AWD 131-138 plasma concentration, range",280 to 10600 ng/mL
same,concentration at 2 h,"[5]; dog, plasma, oral, chronic epilepsy add on, 2 hours after application, read-out: AWD 131-138 plasma concentration, mean",3900 ng/mL
same,concentration at 2 h,"[5]; dog, plasma, oral, chronic epilepsy add on, 2 hours after application, read-out: AWD 131-138 plasma concentration, median",2990 ng/mL
same,concentration at 12 h,"[5]; dog, plasma, oral, chronic epilepsy add on, read-out: AWD 131-138 plasma concentration, mean",644 ng/mL
same,concentration at 12 h,"[5]; dog, plasma, oral, chronic epilepsy add on, read-out: AWD 131-138 plasma concentration, median",179 ng/mL
same,concentration at 12 h,"[5]; dog, plasma, oral, chronic epilepsy add on, read-out: AWD 131-138 plasma concentration, range",7.57 to 5870 ng/mL
same,concentration at 2 h,"[5]; dog, plasma, oral, newly diagnosed dogs, three weeks of treatment, 2 hours after oral application, 10-20 mg/kg twice a day, eleven cases, read-out: AWD 131-138 plasma concentration, range",53.3 to 8620 ng/mL
same,concentration at 12 h,"[5]; dog, plasma, oral, newly diagnosed dogs, three weeks, twelve dogs, read-out: AWD 131-138 plasma concentration, range",5.4 to 1140 ng/mL
same,concentration at 12 h,"[5]; dog, plasma, oral, newly diagnosed dogs, three weeks, read-out: AWD 131-138 plasma concentration, mean",378 ng/mL
same,concentration at 12 h,"[5]; dog, plasma, oral, newly diagnosed dogs, three weeks, read-out: AWD 131-138 plasma concentration, median",218 ng/mL
same,concentration at 2 h,"[5]; dog, plasma, po, newly diagnosed dogs, three weeks, 2 hours after oral application, read-out: AWD 131-138 plasma concentration, mean",3360 ng/mL
same,concentration at 2 h,"[5]; dog, plasma, po, newly diagnosed dogs, three weeks, 2 hours after oral application, read-out: AWD 131-138 plasma concentration, median",2580 ng/mL
same,antagonism of anticonvulsive activity by flumazenil,benzodiazepine receptor,partly antagonised
same,antagonism of anxiolytic activity by flumazenil,benzodiazepine receptor,fully antagonised
same,mode of action at the benzodiazepine receptor,[6]; different cloned human GABA receptor complexes,low affinity partial agonist at the benzodiazepine receptor without subtype selectivity
same,maximal stimulation,[6]; of the effect of diazepam,20%
same,affinity for the benzodiazepine binding site,[7],very low affinity
same,calcium channel blocking effect,calcium channel,weak calcium channel blocking effect
same,substitution for cocaine,[8],did not substitute for cocaine
same,comparison of antiepileptic efficacy between monotherapy treatment groups,[9]; ANOVA,did not indicate any significant differences
same,"duration of the ictus before treatment, median",[9]; [15],3.0 min
same,"duration of the ictus before treatment, time range",[9]; [15],0.5 to 10 min
same,"duration of the ictus during treatment, median",[9]; [16],2.5 min
same,"duration of the ictus during treatment, time range",[9]; [16],0.5 to 10 min
same,% reduction of seizures in responders,"[9]; mean ± SEM, monotherapy",49.8 ± 11.3%
same,"Seizure frequency before treatment, all dogs",[9]; [17],1.6 seizures/month
same,"Seizure frequency before treatment, without nonresponders",[9]; [17],1.7 seizures/month
same,"Seizure frequency during treatment, all dogs",[9]; [18],0.71 seizures/month
same,"Seizure frequency during treatment, without nonresponders",[9]; [18],0.55* seizures/month
same,dogs that died or were euthanized in status epilepticus,[9]; monotherapy,One
same,dogs with focal seizures instead of grand mal seizures during treatment,[9]; monotherapy,two
same,dogs with reduced seizure number per cluster,[9]; monotherapy,4
same,number of dogs with decreased duration of the ictus,[9]; monotherapy,five
same,number of dogs with shortened postictal phase,[9]; monotherapy,four
same,owners reporting subjectively a decrease of seizure severity,[9]; monotherapy,nine of 12
same,"reduction of seizure number per cluster, mean",[9]; monotherapy,45.3%
same,dogs in which clusters no longer developed,"[9]; monotherapy, dogs with clusters before treatment",One
same,"decrease of the duration of the ictus, mean","[9]; monotherapy, in the dogs with a decrease",38%

# Reference: patent publication US9469611B2, “Use of dihydroimidazolones for the treatment of dogs” (BOEHRINGER INGELHEIM VETMEDICA GMBH, priority 2002, dated 2016)
